SMILES	melting point
CC(C)OC(=O)Nc1ccc(-c2c(C#N)c3ccc(OCS(C)(=O)=O)cc3n2C2CC2)cc1 [Compound 3052]	166 to 187 °C
C[C@@H](OC(=O)Nc1ccc(-c2c(C#N)c3ccc(OCS(C)(=O)=O)cc3n2C2CC2)cc1)C(F)(F)F [Compound 3054]	190 to 196 °C
Cc1ccnc(Oc2ccc3c(C#N)c(-c4ccc(NC(=O)O[C@H](C)C5CC5)cc4C)n(C4CCC4)c3c2)n1 [Compound 3057]	95 to 112 °C
CCc1cnc(Oc2ccc3c(C#N)c(-c4ccc(NC(=O)O[C@H](C)C5CC5)cc4C)n(C4CCC4)c3c2)nc1 [Compound 3058]	181 to 185 °C
Cc1ccnc(Oc2ccc3c(C#N)c(-c4ccc(NC(=O)O[C@H](C)C5CC5)cc4Cl)n(C4CCC4)c3c2)n1 [Compound 3059]	97 to 109 °C
CCc1cnc(Oc2ccc3c(C#N)c(-c4ccc(NC(=O)O[C@H](C)C5CC5)cc4Cl)n(C4CCC4)c3c2)nc1 [Compound 3060]	205 to 212 °C
CC(C)(C)OC(=O)Nc1ccc(-c2c(C#N)c3ccc(OCS(C)(=O)=O)cc3n2C2CCCC2)cc1 [Compound 3066]	237 to 241 °C
CC(C)OC(=O)Nc1ccc(-c2c(C#N)c3ccc(OCS(C)(=O)=O)cc3n2C2CCCC2)cc1 [Compound 3067]	265 to 271 °C
C[C@@H](OC(=O)Nc1ccc(-c2c(C#N)c3ccc(OCS(C)(=O)=O)cc3n2C2CCCC2)cc1)C1CC1 [Compound 3068]	218 to 224 °C
CCOc1ccc2c(C#N)c(-c3ccc(NC(=O)OC4CCN(C(=O)OC(C)(C)C)CC4)cc3)n(C3CCC3)c2c1 [Compound 3069]	207 to 211 °C
CCOc1ccc2c(C#N)c(-c3ccc(NC(=O)OC4CCN(S(=O)(=O)CC)CC4)cc3)n(C3CCC3)c2c1 [Compound 3070]	237 to 242 °C
CCOc1ccc2c(C#N)c(-c3ccc(NC(=O)OC4CCN(S(=O)(=O)C5CC5)CC4)cc3)n(C3CCC3)c2c1 [Compound 3071]	236 to 241 °C
CCOc1ccc2c(C#N)c(-c3ccc(NC(=O)OC4CCN(C(C)=O)CC4)cc3)n(C3CCC3)c2c1 [Compound 3072]	211 to 215 °C
CCOc1ccc2c(C#N)c(-c3ccc(NC(=O)OC4CCN(C(=O)OCCOC)CC4)cc3)n(C3CCC3)c2c1 [Compound 3073]	185 to 190 °C
CCOc1ccc2c(c1)c(C#N)c(-c1ccc(N(S(=O)(=O)CC)S(=O)(=O)CC)cc1)n2CC1CC1 [Compound 3078]	180 to 182 °C
CCOc1ccc2c(C#N)c(-c3ccc(NC(=O)OCCS(C)(=O)=O)cc3)n(C3CCC3)c2c1 [Compound 3079]	194 to 195 °C
CCOc1ccc2c(C#N)c(-c3ccc(S(=O)(=O)N4CC[C@H](O)C4)cc3)n(C3CCC3)c2c1 [Compound 3085]	195 to 196 °C
CCOc1ccc2c(C#N)c(-c3ccc(S(=O)(=O)N4CCC(O)C4)cc3)n(C3CCC3)c2c1 (stereo not shown) [Compound 3086]	194 to 196 °C
N#Cc1c(-c2ccc(NC(=O)Nc3n[nH]c(C4CC4)n3)cc2)n(C2CCC2)c2cc(Oc3ncccn3)ccc12 [Compound 3087]	275 °C (dec.)
CSc1nccc(Oc2ccc3c(C#N)c(-c4ccc(NC(=O)O[C@H](C)C5CC5)cc4)n(C4CCC4)c3c2)n1 [Compound 3089]	172 to 177 °C
CSc1nccc(Oc2ccc3c(C#N)c(-c4ccc(NC(=O)OC(C)C)cc4)n(C4CCC4)c3c2)n1 [Compound 3090]	196 to 201 °C
N#Cc1c(-c2ccc(NS(=O)(=O)c3ccccc3)cc2)n(C2CCC2)c2cc(OC3CCOCC3)ccc12 [Compound 3091]	231 to 233 °C

SMILES	melting point
CSc1nccc(Oc2ccc3c(C#N)c(-c4ccc(NC(=O)NC(C)C)cc4)n(C4CCC4)c3c2)n1 [Compound 3092]	238 to 243 °C
CCOc1ccc2c([N+](=O)[O-])c(-c3ccc(NC(=O)OC(C)C)cc3)n(CC3CC3)c2c1[N+](=O)[O-] [Compound 3093]	112 to 119 °C
CCCS(=O)(=O)Nc1ccc(-c2c(C#N)c3cc(C(=O)N(C)C)ccc3n2C2CCC2)cc1 [Compound 3094]	236 to 237 °C
CCCS(=O)(=O)Nc1ccc(-c2c(C#N)c3cc(C(=O)N(CC)CC)ccc3n2C2CCC2)cc1 [Compound 3095]	133 to 134 °C
CCCS(=O)(=O)Nc1ccc(-c2c(C#N)c3cc(C(=O)N(C)CC)ccc3n2C2CCC2)cc1 [Compound 3096]	138 to 139 °C
CCCS(=O)(=O)Nc1ccc(-c2c(C#N)c3cc(C(=O)N4CCCC4)ccc3n2C2CCC2)cc1 [Compound 3097]	200 to 202 °C
CCCS(=O)(=O)Nc1ccc(-c2c(C#N)c3cc(C(=O)N4CCOCC4)ccc3n2C2CCC2)cc1 [Compound 3098]	128 to 129 °C
N#Cc1c(-c2ccc(N)cc2)n(C2CCC2)c2cc(Oc3nccc(N4CCOCC4)n3)ccc12 [Compound 3099]	149 to 152 °C
C[C@@H](OC(=O)Nc1ccc(-c2c(C#N)c3ccc(C(=O)N4CCN(C)CC4)cc3n2C2CCC2)cc1)C1CC1 [Compound 3106]	104 to 106 °C
C[C@@H](OC(=O)Nc1ccc(-c2c(C#N)c3ccc(C(=O)N4CCOCC4)cc3n2C2CCC2)cc1)C1CC1 [Compound 3107]	156 to 158 °C
CC1CCN(C(=O)c2ccc3c(C#N)c(-c4ccc(NC(=O)O[C@H](C)C5CC5)cc4)n(C4CCC4)c3c2)CC1 [Compound 3108]	150 to 153 °C
CC(C)NC(=O)COc1ccc(-c2c(C#N)c3ccc(OC4CCOCC4)cc3n2C2CCC2)cc1 [Compound 3109]	152 to 153 °C
C=CCNC(=O)Oc1ccc(-c2c(C#N)c3ccc(OC4CCOCC4)cc3n2C2CCC2)cc1 [Compound 3110]	167 to 168 °C
CN(C)c1ccc(NC(=O)Oc2ccc(-c3c(C#N)c4ccc(OC5CCOCC5)cc4n3C3CCC3)cc2)cc1 [Compound 3111]	165 to 166 °C
CN(C(=O)Oc1ccc(-c2c(C#N)c3ccc(OC4CCOCC4)cc3n2C2CCC2)cc1)c1ccccc1 [Compound 3112]	167 to 169 °C
CN1CCN(C(=O)c2ccc3c(C#N)c(-c4ccc(NS(=O)(=O)C5CC5)cc4)n(C4CCC4)c3c2)CC1 [Compound 3114]	124 to 127 °C
N#Cc1c(-c2ccc(NCCCc3ccccc3)cc2)n(C2CCC2)c2cc(OC3CCOCC3)ccc12 [Compound 3118]	105 to 108 °C
CC(C)c1ccc(CNc2ccc(-c3c(C#N)c4ccc(OC5CCOCC5)cc4n3C3CCC3)cc2)cc1 [Compound 3119]	157 to 159 °C
N#Cc1c(-c2ccc(NCc3ccccc3F)cc2)n(C2CCC2)c2cc(OC3CCOCC3)ccc12 [Compound 3120]	180 to 181 °C
Cc1ccccc1CNc1ccc(-c2c(C#N)c3ccc(OC4CCOCC4)cc3n2C2CCC2)cc1 [Compound 3121]	168 to 172 °C
Cc1cc(C)cc(CNc2ccc(-c3c(C#N)c4ccc(OC5CCOCC5)cc4n3C3CCC3)cc2)c1 [Compound 3122]	104 to 107 °C
N#Cc1c(-c2ccc(NCC3CCCCC3)cc2)n(C2CCC2)c2cc(OC3CCOCC3)ccc12 [Compound 3123]	175 to 177 °C

SMILES	melting point
CC(C)c1ccc(Nc2ccc(-c3c(C#N)c4ccc(OC5CCOCC5)cc4n3C3CCC3)cc2)cc1 [Compound 3127]	185 to 188 °C
COc1ccc(Nc2ccc(-c3c(C#N)c4ccc(OC5CCOCC5)cc4n3C3CCC3)cc2)cc1 [Compound 3128]	207 to 210 °C
N#Cc1c(-c2ccc(Nc3cccc(OC(F)(F)F)c3)cc2)n(C2CCC2)c2cc(OC3CCOCC3)ccc12 [Compound 3129]	108 to 110 °C
COCCOc1ccc2c(C#N)c(-c3ccc(C(=O)N[C@@H](C)c4ccccc4)cc3)n(C3CCC3)c2c1 [Compound 3131]	149 to 152 °C
COCCOc1ccc2c(C#N)c(-c3ccc(C(=O)N[C@H](C)c4ccc(F)cc4)cc3)n(C3CCC3)c2c1 [Compound 3132]	169 to 170 °C
COCCOc1ccc2c(C#N)c(-c3ccc(C(=O)N[C@H](C)c4ccc(OC)cc4)cc3)n(C3CCC3)c2c1 [Compound 3133]	156 to 157 °C
COCCOc1ccc2c(C#N)c(-c3ccc(C(=O)NCc4ccc(F)cc4)cc3)n(C3CCC3)c2c1 [Compound 3134]	154 to 160 °C
CCN(CC)C(=O)c1ccc2c(c1)c(C#N)c(-c1ccc(NC(=O)NC(C)C)cc1)n2C1CCC1 [Compound 3136]	250 °C (dec.)
CCN(CC)C(=O)c1ccc2c(c1)c(C#N)c(-c1ccc(NC(=O)OC(C)C)cc1)n2C1CCC1 [Compound 3145]	225 to 226 °C
CC(C)OC(=O)Nc1ccc(-c2c(C#N)c3cc(C(=O)N(C)C)ccc3n2C2CCC2)cc1 [Compound 3146]	136 to 138 °C
CC(C)OC(=O)Nc1ccc(-c2c(C#N)c3cc(C(=O)N4CCCC4)ccc3n2C2CCC2)cc1 [Compound 3148]	204 to 205 °C
N#Cc1c(-c2ccc(NC3=NC(O)(C(F)(F)F)CS3)cc2)n(C2CCC2)c2cc(OC3CCOCC3)ccc12 (stereo not shown) [Compound 3150]	136 to 138 °C
CC(C)(C)c1csc(Nc2ccc(-c3c(C#N)c4ccc(OC5CCOCC5)cc4n3C3CCC3)cc2)n1 [Compound 3151]	246 to 248 °C
Cc1csc(Nc2ccc(-c3c(C#N)c4ccc(OC5CCOCC5)cc4n3C3CCC3)cc2)n1 [Compound 3152]	215 to 217 °C
N#Cc1c(-c2ccc(Nc3nc(-c4ccc(F)cc4)cs3)cc2)n(C2CCC2)c2cc(OC3CCOCC3)ccc12 [Compound 3153]	269 to 271 °C
N#Cc1c(-c2ccc(Nc3ccc(F)c(C(F)(F)F)c3)cc2)n(C2CCC2)c2cc(OC3CCOCC3)ccc12 [Compound 3156]	168 to 169 °C
N#Cc1c(-c2ccc(NC(=S)NC3CCCC3)cc2)n(C2CCC2)c2cc(OC3CCOCC3)ccc12 [Compound 3157]	137 to 138 °C
CC(C)NC(=S)Nc1ccc(-c2c(C#N)c3ccc(OC4CCOCC4)cc3n2C2CCC2)cc1 [Compound 3158]	129 to 130 °C
COc1ccc(Nc2ccc(-c3c(C#N)c4ccc(OC5CCOCC5)cc4n3C3CCC3)cc2)cc1C [Compound 3159]	195 to 201 °C
N#Cc1c(-c2ccc(Nc3ccccc3Cl)cc2)n(C2CCC2)c2cc(OC3CCOCC3)ccc12 [Compound 3160]	125 to 128 °C
